Source: the SangsterLogP compilation

Columns and labels:
[1] = method code SF-AS, from DOI: 10.1139/cjpp-75-12-1362, PMID: 9534947
[2] = not given; remark: listed apart in the source
[3] = method code SF-HPLC, from DOI: 10.1016/j.ejpb.2013.06.022, PMID: 23958327; conditions: pH 6.0
[4] = method code SF-GLC, from DOI: 10.1016/j.chemosphere.2013.04.065, PMID: 23732011
[5] = method code G-GLC, from DOI: 10.1021/es00169a004
[6] = method code SF-AS, from DOI: 10.1016/s0021-9673(00)82600-x
[7] = not given; remark: listed apart in the source
[8] = not given; remark: listed apart in the source
[9] = method code SF-AS, from DOI: 10.1002/jps.2600790421, PMID: 2352153
[10] = method code SF-AS, from DOI: 10.1021/jm00047a013, PMID: 7932583
[11] = method code SF-HPLC, from DOI: 10.1021/jm00112a026, PMID: 1875345; conditions: pH 7.4
[12] = not given; remark: listed apart in the source
[13] = method code SF-AS, from KuchaÅ™, M.; Rejholec, V.; Miller, V. (1985). Chromatographically determined lipophilicity and intramolecular interactions of bioactive compounds. Pharmacochemistry Library, 8, 321-331.; conditions: pH 3.4
[14] = not given; remark: listed apart in the source
[15] = method code SF-AS, from DOI: 10.1007/bf00165040, PMID: 3033523; conditions: pH 7.4
[16] = method code SF-GLC, from DOI: 10.1007/bf00224496
[17] = method code SF-NMR, from DOI: 10.1021/jm00157a023, PMID: 3806574
[18] = method code SF-AS, from DOI: 10.1021/jm00075a005, PMID: 8246220; conditions: pH 7.4
[19] = not given; remark: listed apart in the source
[20] = not given; remark: listed apart in the source
[21] = method code SF-GLC, from DOI: 10.1016/0048-3575(76)90072-9
[22] = not given; remark: listed apart in the source
[23] = not given; remark: listed apart in the source
[24] = method code SF-HPLC, from DOI: 10.1080/01483919108049396; conditions: pH 7.0
[25] = method code SF-AS, from DOI: 10.1016/0378-5173(84)90231-x
[26] = not given; remark: listed apart in the source
[27] = method code SF-AS, from DOI: 10.1016/0045-6535(95)00267-c
[28] = not given; remark: listed apart in the source

SMILES: CCCCCNc1ccc(C(=O)OCCN(C)C)cc1
- logP: 4.14

SMILES: Cc1ncc(CO)c(/C=N/NC(=O)c2ccco2)c1O
- logP [1]: 1.39

SMILES: O=C1NC(Cc2ccccc2)C(=O)NC1Cc1ccccc1 (stereo unspecified)
- logP [2]: 2.08

SMILES: CCOC(=O)O[C@]1(C(=O)COC(=O)CC)CC[C@H]2[C@@H]3CCC4=CC(=O)C=C[C@]4(C)[C@H]3[C@@H](O)C[C@@]21C
- logD [3]: 2.9

SMILES: C=CCOc1ccc(OCCC)cc1
- logP [4]: 2.4

SMILES: Clc1cc(Cl)c(-c2c(Cl)c(Cl)cc(Cl)c2Cl)c(Cl)c1Cl
- logP [5]: 7.21

SMILES: CNc1cnn(-c2ccccc2)c(=O)c1Cl
- logP [6]: 1.19

SMILES: Nc1cnn(-c2cccc(C(F)(F)F)c2)c(=O)c1Cl
- logP [6]: 2.41

SMILES: Cc1c(N=C2NCCN2)ccc2nccnc12
- logP [7]: 0.9

SMILES: CC(C)NCC(O)COc1cccc2[nH]ccc12 (stereo unspecified)
- logP [8]: 1.76

SMILES: O=NN(CCCl)C(CC(=O)NCCCl)C(=O)NC(=O)NCCCl (stereo unspecified)
- logP [9]: 3.15

SMILES: CO[C@H]1N([C@H]2C[C@H](F)[C@@H](CO)O2)C(=O)NC(=O)[C@]1(C)Cl
- logP [10]: 0.71

SMILES: OC(CN1C2CCCCCCC21)Cn1ccnc1 (stereo unspecified)
- logD [11]: 1.84

SMILES: CCOP(=S)(NC(C)CC)Oc1cc(C)ccc1[N+](=O)[O-] (stereo unspecified)
- logP [12]: 4.62

SMILES: CCC(O)(C(=O)O)c1ccccc1 (stereo unspecified)
- logD [13]: 1.37

SMILES: Clc1cc(Cl)c(Cl)c(-c2ccccc2)c1Cl
- logP [5]: 5.94

SMILES: O=c1[nH]c2ccccc2n1C1=CCNCC1
- logP [14]: 0.85

SMILES: Cc1c(N=C2NCCN2)ccc2c1NCCN2
- logP [7]: 0.04

SMILES: c1ccc(N=Nc2ccccc2)cc1
- logP [8]: 3.92

SMILES: CCOP(=O)(NC(C)CC)Oc1cc(C)ccc1[N+](=O)[O-] (stereo unspecified)
- logP [12]: 2.73

SMILES: CSc1nc2c(N)ncnc2n1C1OC2COP(=O)(O)OC2C1O (stereo unspecified)
- logD [15]: -2.03

SMILES: CC1(C)C2CC3C(C2)C31C
- logP [16]: 4.85

SMILES: CCOCCOCCOP(=S)(N1CC1)N1CC1
- logP [17]: 0.38

SMILES: CCON1C(=O)CC2(CCCC2)C1=O
- logD [18]: 1.26

SMILES: Clc1ccc(Cl)c(-c2cccc(Cl)c2Cl)c1
- logP [19]: 5.81

SMILES: CN(C)c1cnn(-c2cccc(C(F)(F)F)c2)c(=O)c1Cl
- logP [6]: 2.67

SMILES: Clc1cc2c(cc1Cl)Oc1c(Cl)c(Cl)c(Cl)c(Cl)c1O2
- logP [20]: 7.79

SMILES: CCOC(=O)CN(C(=O)CCl)c1ccccc1OC(C)C
- logP [21]: 2.75

SMILES: O=C1NC(Cc2c[nH]c3ccccc23)C(=O)NC1Cc1ccc(O)cc1 (stereo unspecified)
- logP [2]: 1.21

SMILES: O=C(c1ccc(O)cc1)c1ccc(Cl)cc1
- logP [22]: 4

SMILES: CO[C@@H]1N([C@H]2C[C@H](F)[C@@H](CO)O2)C(=O)NC(=O)[C@@]1(C)Br
- logP [10]: 0.54

SMILES: O=C1CC2(CCCC2)C(=O)N1Oc1ccccc1
- logD [18]: 1.77

SMILES: OC(CN1C2CCc3ccccc3C21)Cn1ccnc1 (stereo unspecified)
- logD [11]: 2.15

SMILES: CC(C)[C@@H](C(=O)N[C@@H](Cc1ccccc1)C(=O)NC(=O)NCCCl)N(CCCl)N=O
- logP [9]: 3.47

SMILES: Nc1ccc(C(=O)N/N=C/c2c(O)ccc3ccccc23)cc1
- logP [1]: 3.04

SMILES: C=CCOc1ccc(OCC=C)cc1
- logP [4]: 3.5

SMILES: C=C1C2CCC(C2)C1(C)C (stereo unspecified)
- logP [16]: 4.56

SMILES: c1ccc2c(c1)-c1ccc3ccc4cccc5cc-2c1c3c45
- logP [23]: 6.58

SMILES: COc1ccc(CON2C(=O)CC3(CCCC3)C2=O)cc1
- logD [18]: 2.23

SMILES: CNc1ccc(C(=O)OCCN(C)C)cc1
- logP: 1.95

SMILES: Clc1cc(Cl)cc(-c2cc(Cl)c(Cl)cc2Cl)c1
- logP [19]: 5.68

SMILES: O=C(Nc1ccn([C@H]2C[C@H](O)[C@@H](CO)O2)c(=O)n1)c1ccccc1
- logD [24]: 0.67

SMILES: O=c1[nH]cnc2c1ncn2[C@H]1C[C@H](O)[C@@H](CO)O1
- logD [24]: -1.71

SMILES: C1=Cc2cccc3cccc1c23
- logP [23]: 4.07

SMILES: Cc1ccc(C=[N+]([O-])C(C)(C)C)cc1
- logP [25]: 1.74

SMILES: CCOC(=O)CN(C(=O)CCl)c1ccccc1-c1ccccc1
- logP [21]: 3.37

SMILES: Cc1cc(C2CCCCC2)n(O)c(=O)c1
- logD [3]: 2.3

SMILES: C=C(C)C(=O)OCc1ccccc1
- logP [26]: 2.16

SMILES: O=C1CNC(=O)C(Cc2ccccc2)N1 (stereo unspecified)
- logP [2]: 0.25

SMILES: CCCNc1ccc(C(=O)OCCN(C)C)cc1
- logP: 3.15

SMILES: CCOC(=O)c1ccc(C#Cc2ccc3c(c2)C(C)(C)CCS3)nc1
- logD [3]: 5.6

SMILES: O=C(N/N=C/c1c(O)ccc2ccccc12)c1cccc(F)c1
- logP [1]: 4.06

SMILES: c1ccc2c(c1)ccc1cc3ccc4ccccc4c3cc12
- logP [23]: 6.84

SMILES: COc1ccc(C=[N+]([O-])C(C)(C)C)cc1
- logP [25]: 1.21

SMILES: CC(C)C(C)Sc1nc2c(N)ncnc2n1C1OC2COP(=O)(O)OC2C1O (stereo unspecified)
- logD [15]: -1.05

SMILES: CC1=CC(=O)c2cc(C)ccc2C1=O
- logP [8]: 1.77

SMILES: O=c1[nH]c2cc(Cl)ccc2n1C1CCNCC1
- logP [14]: 1.59

SMILES: Nc1ncnc2c1nc(Sc1ccc(Cl)cc1)n2[C@@H]1O[C@@H]2COP(=O)(O)O[C@H]2[C@H]1O
- logD [15]: -0.98

SMILES: CCOC(=O)CN(C(=O)CCl)c1ccccc1
- logP [21]: 1.6

SMILES: Clc1cccc(-c2c(Cl)ccc(Cl)c2Cl)c1Cl
- logP [19]: 6.04

SMILES: CCOCCOCCOP(=S)(N1CC1(C)C)N1CC1(C)C (stereo unspecified)
- logP [17]: 0.47

SMILES: Cc1c(N=C2NCCN2)ccc2c1NCCO2
- logP [7]: 0.35

SMILES: CCCCc1oc2ccccc2c1C(=O)c1cc(I)c(O)c(I)c1
- logP [22]: 5.92

SMILES: O=NN(CCCl)C(Cc1ccccc1)C(=O)NC(=O)NCCCl (stereo unspecified)
- logP [9]: 3.25

SMILES: C=C(C)C(=O)OCCC(C)OC(=O)C(=C)C (stereo unspecified)
- logP [26]: 2.16

SMILES: Clc1cc(Cl)c2[nH]c3c(Cl)cc(Cl)cc3c2c1
- logP [20]: 5.75

SMILES: CCCCN(C)C(=O)Nc1ccc(Cl)c(Cl)c1
- logP [27]: 4.1

SMILES: S=P(N1CCOCCOCCOCCOCCOCC1)(N1CC1)N1CC1
- logP [17]: 0.75

SMILES: C=CCOc1cccc(OCC=C)c1
- logP [4]: 3.8

SMILES: Clc1cc2c(cc1Cl)=c1cc(Cl)c(Cl)cc1=2
- logP [20]: 6.14

SMILES: O=C(O)CCC12C=CC(CCC(=O)O)(OO1)c1ccccc12
- logP [28]: -0.13

SMILES: CCCSP(=S)(OCC)Oc1ccc(SC)cc1 (stereo unspecified)
- logP [12]: 4.9

SMILES: Clc1cc(Cl)c(-c2c(Cl)cccc2Cl)c(Cl)c1
- logP [5]: 5.37

SMILES: CCc1ccc(C=[N+]([O-])C(C)(C)C)cc1
- logP [25]: 2.19

SMILES: O=c1[nH]c2ccccc2n1C1CCNCC1
- logP [14]: 1.14

SMILES: CO[C@@H]1N([C@H]2C[C@H](F)[C@@H](CO)O2)C(=O)NC(=O)[C@@]1(C)I
- logP [10]: 0.6

SMILES: OC(CN1C2CCCC21)Cn1ccnc1 (stereo unspecified)
- logD [11]: 0.37

SMILES: C=C(C)C(=O)OCC(O)COc1ccc(C(C)(C)c2ccc(OCC(O)COC(=O)C(=C)C)cc2)cc1 (stereo unspecified)
- logP [26]: 3.34

SMILES: CCCCc1oc2ccccc2c1C(=O)c1ccc(O)cc1
- logP [22]: 4.87

SMILES: CC12C=CC(C)(OO1)c1ccccc12
- logP [28]: 2.17

SMILES: CC12OOC(CCC(=O)O)(C=C1CCC(=O)O)c1ccccc12 (stereo unspecified)
- logP [28]: 0.24

SMILES: COc1ccc(C(=O)CCCC(=O)O)cc1
- logD [13]: 1.63

SMILES: C=C1CCC2(C(C)C)CC12 (stereo unspecified)
- logP [16]: 4.63

SMILES: CCc1ccc(C(C)(O)C(=O)O)cc1 (stereo unspecified)
- logD [13]: 1.9

SMILES: CC1CCCCC1NC(=O)Nc1ccccc1 (stereo unspecified)
- logP [27]: 3.09

SMILES: COc1ccc(Oc2ccc(NC(=O)N(C)C)cc2)cc1
- logP [27]: 2.54
